Data published in patent US12139473B2, “Substituted-N-heteroaryl compounds and uses thereof” (Bionomics Limited, priority 2019, dated 2024).

Target: T1, hKv3.1 (Homo sapiens, UniProt P48547)
T1 construct: expressed in transfected cells
T1 sequence (P48547 1-511): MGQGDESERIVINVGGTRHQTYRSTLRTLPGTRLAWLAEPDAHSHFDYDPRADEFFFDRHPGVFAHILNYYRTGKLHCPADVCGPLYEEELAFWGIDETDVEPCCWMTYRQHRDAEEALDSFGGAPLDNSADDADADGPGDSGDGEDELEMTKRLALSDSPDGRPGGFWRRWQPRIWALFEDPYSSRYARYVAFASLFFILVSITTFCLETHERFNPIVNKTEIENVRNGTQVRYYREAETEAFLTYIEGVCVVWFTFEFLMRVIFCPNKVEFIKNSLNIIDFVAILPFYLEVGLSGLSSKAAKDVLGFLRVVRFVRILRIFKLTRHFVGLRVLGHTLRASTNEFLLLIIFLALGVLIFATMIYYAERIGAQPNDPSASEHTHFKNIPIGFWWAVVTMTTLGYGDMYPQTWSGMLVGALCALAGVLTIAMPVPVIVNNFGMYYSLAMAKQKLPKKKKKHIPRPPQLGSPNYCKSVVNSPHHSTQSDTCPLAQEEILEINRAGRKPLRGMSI
Experiment: Automated patch clamp electrophysiology (Patchliner), CHO/Kv3.1 cells
Format: cell-based
Settings: 10 μM compound, hKv3.1 in CHO-K1, whole-cell; for Kv3.1 Activity at 10 μM Potentiation (%): peak current at voltage step of −10 mV vs vehicle (0.33% DMSO); for Kv3.1 Activity at 10 μM Voltage Shift (mV): voltage shift of the IV curve at V1/2
Procedure: hKv3.1, hKv3.2, hKv3.3, and hKv3.4 were stably expressed in CHO-K1 (Chinese hamster ovary) cells and kept under constant antibiotic selection. For in vitro assays, cells were maintained in appropriate growth medium at 37° C. and 5% CO2 in a humidified incubator.
hKv3.X expressing cells were plated in T-25 flasks for 3-4 days at 37° C. (no selection antibiotic) prior to use and grown to 80% confluence. Cells were washed twice with PBS (calcium and magnesium free) and detached with a 5-minute treatment at 37° C. with 2-3 mls of Accutase®. Cells were collected, and flask was washed in CHO-SFM II media (Life Technologies Gibco), centrifuged for 2 minutes at ˜110×g and resuspended to obtain a single cell suspension of ˜2-3×10^6 cells/ml.
The intracellular solution contained the following (in mM): KCl 50, NaCl 10, KF 60, EGTA 20, HEPES 10, adjusted to pH 7.2 with KOH and an osmolarity of 285 mOsmol. Seal enhancer was purchased from Nanion (80 mM NaCl, 3 mM KCl, 10 mM MgCl2, 35 mM CaCl2), 10 mM HEPES, pH7.4, 298 mOsmol. The external solution contained (in mM): NaCl 140, KCl 4, CaCl2) 2, MgCl2 1, HEPES 10, Glucose 5, adjusted to pH7.4 and an osmolarity of 298 mOsmol.
All compounds were initially tested at 10 uM at a final DMSO concentration of 0.33%. Compounds were dissolved in dimethylsulfoxide (DMSO) at a stock concentration of 30 mM. The compound was further diluted 1:10 to give a stock concentration of 3 mM in DMSO. The final assay solution was diluted 1:300 in External solution to give a final concentration of 10 uM. For the DMSO Control Buffer 30 uL of DMSO was added to 10 mL buffer.
All electrophysiological recordings were performed at ambient temperature (21-23° C.) using automated patch clamp (Patchliner, Nanion Technologies GmbH) in the whole-cell configuration.
Cell membrane potentials were held at −80 mV, and currents were evoked by voltage steps (1000 ms duration) from −60 to +60 mV in 10 mV increments. This was performed first with vehicle (0.33% DMSO) and then with 10 uM compound, after a 3-minute incubation period. Data was taken from 4 cells per assay.
The recordings were analysed and selected using peak current amplitude (>100 pA at the −10 mV voltage step) in the absence of compound to eliminate unsuitable cells from analysis. Peak current amplitude was measured and recorded for each voltage step and data was normalised to the maximum current at +60 mV. The normalised Kv3.x currents following addition of the compound were then compared with the currents recorded prior to compound addition (vehicle control). Positive modulation was determined as % potentiation at the voltage step of −10 mV=[current (cmpd)/current (veh)]*100−100. % potentiation≥50% was considered acceptable. In addition, voltage shift of the IV curve at V1/2 was measured. V1/2 of ≥−5 mV was also considered acceptable. IV curves were plotted in GraphPad Prism (software version 6.0) and fitted with a Boltzmann equation, where V1/2 is the voltage at half-maximal activation.

Row | Kv3.1 Activity at 10 μM Potentiation (%) | Kv3.1 Activity at 10 μM Voltage Shift (mV) | Structure (SMILES)
1 | 13% | −0.3 mV | COc1ccc(Oc2cc(N3C(=O)NC(C)(C)C3=O)ncn2)cc1F [Example 12, 3-[6-(3-fluoro-4-methoxy-phenoxy)pyrimidin-4-yl]-5,5-dimethyl-imidazolidine-2,4-dione]
2 | 26% | −2.4 mV | COc1cc(Oc2cnnc(N3C(=O)NC(C)(C)C3=O)c2)ccc1C [Example 77, 3-[5-(3-methoxy-4-methyl-phenoxy)pyridazin-3-yl]-5,5-dimethyl-imidazolidine-2,4-dione]
3 | 29% | −1.4 mV | COc1cc(C)ccc1Oc1cc(N2C(=O)NC(C)(C)C2=O)ncn1 [Example 21, 3-[6-(2-methoxy-4-methyl-phenoxy)pyrimidin-4-yl]-5,5-dimethyl-imidazolidine-2,4-dione]
4 | 6% | −0.1 mV | COc1cncc(Oc2cc(N3C(=O)NC(C)(C)C3=O)ncn2)c1 [Example 25, 5,5-dimethyl-3-[6-[(5-methoxy-3-pyridyl)oxy]pyrimidin-4-yl]imidazolidine-2,4-dione]
5 | 31% | −2.3 mV | Cc1ccc(Oc2cc(N3C(=O)NC(C)(C)C3=O)ncn2)cc1C#N [Example 22, 5-[6-(4,4-dimethyl-2,5-dioxo-imidazolidin-1-yl)pyrimidin-4-yl]oxy-2-methyl-benzonitrile]
6 | 34% | −2.1 mV | CC[C@]1(C)NC(=O)N(c2cc(Oc3ccc(C)c(OC)c3)ncn2)C1=O [Example 3, (5S)-5-ethyl-3-[6-(3-methoxy-4-methyl-phenoxy)pyrimidin-4-yl]-5-methyl-imidazolidine-2,4-dione]
7 | 15% | −1.7 mV | COc1c(C)cccc1Oc1cc(N2C(=O)NC(C)(C)C2=O)ncn1 [Example 19, 3-[6-(2-methoxy-3-methyl-phenoxy)pyrimidin-4-yl]-5,5-dimethyl-imidazolidine-2,4-dione]
8 | 18% | −2.0 mV | Cc1ccc(Oc2cc(N3C(=O)NC(C)(C)C3=O)ncn2)cc1OC(C)C [Example 38, 3-[6-(3-isopropoxy-4-methyl-phenoxy)pyrimidin-4-yl]-5,5-dimethyl-imidazolidine-2,4-dione]
9 | 21% | −1.6 mV | CC(C)c1cc(Oc2ccnc(N3C(=O)NC(C)(C)C3=O)n2)ccc1C#N [Example 61, 4-[2-(4,4-dimethyl-2,5-dioxo-imidazolidin-1-yl)pyrimidin-4-yl]oxy-2-isopropyl-benzonitrile]
10 | 7% | −0.2 mV | COc1cc(C)cc(Oc2cc(N3C(=O)NC(C)(C)C3=O)ncn2)c1 [Example 17, 3-[6-(3-methyl-5-methoxy-phenoxy)pyrimidin-4-yl]-5,5-dimethyl-imidazolidine-2,4-dione]
11 | 10% | −1.6 mV | Cc1ccc(Oc2cc(N3C(=O)NC(C)(C)C3=O)ncn2)cc1C [Example 29, 3-[6-(3,4-dimethylphenoxy)pyrimidin-4-yl]-5,5-dimethyl-imidazolidine-2,4-dione]
12 | 37% | −3.3 mV | COc1ccc(Oc2cc(N3C(=O)NC(C)(C)C3=O)ncn2)cc1C [Example 20, 3-[6-(3-methyl-4-methoxy-phenoxy)pyrimidin-4-yl]-5,5-dimethyl-imidazolidine-2,4-dione]
13 | 22% | −1.1 mV | CC[C@H]1NC(=O)N(c2ccnc(Oc3ccc(C)c(OC)c3)n2)C1=O [Example 59, (5R)-5-ethyl-3-[2-(3-methoxy-4-methyl-phenoxy)pyrimidin-4-yl]imidazolidine-2,4-dione]
14 | 63% | −2.1 mV | CCc1cc(Oc2cc(N3C(=O)NC(C)(C)C3=O)ncn2)ccc1C [Example 30, 3-[6-(3-ethyl-4-methylphenoxy)pyrimidin-4-yl]-5,5-dimethyl-imidazolidine-2,4-dione]
15 | 33% | −4.0 mV | Cc1ccc(Oc2cc(N3C(=O)NC(C)(C)C3=O)ncn2)cn1 [Example 24, 5,5-dimethyl-3-[6-[(6-methyl-3-pyridyl)oxy]pyrimidin-4-yl]imidazolidine-2,4-dione]
16 | 22% | −2.2 mV | COc1ccccc1Oc1cc(N2C(=O)NC(C)(C)C2=O)ncn1 [Example 9, 3-[6-(2-methoxyphenoxy)pyrimidin-4-yl]-5,5-dimethyl-imidazolidine-2,4-dione]
17 | −7% | +0.8 mV | CC[C@H]1NC(=O)N(c2nccc(Oc3ccc(C#N)cc3C(C)(C)C)n2)C1=O [Example 57, 3-tert-butyl-4-[2-[(4R)-4-ethyl-2,5-dioxo-imidazolidin-1-yl]pyrimidin-4-yl]oxy-benzonitrile]
18 | 20% | −3.1 mV | CC[C@@]1(C)NC(=O)N(c2ccnc(Oc3ccc(C)c(OC)c3)n2)C1=O [Example 62, (5R)-5-ethyl-3-[2-(3-methoxy-4-methyl-phenoxy)pyrimidin-4-yl]-5-methyl-imidazolidine-2,4-dione]
19 | 15% | −0.5 mV | COc1cc(Oc2cncc(N3C(=O)NC(C)(C)C3=O)n2)ccc1F [Example 54, 3-[6-(4-fluoro-3-methoxy-phenoxy)pyrazin-2-yl]-5,5-dimethyl-imidazolidine-2,4-dione]
20 | 3% | +0.4 mV | COc1cccc(Oc2cc(N3C(=O)NC(C)(C)C3=O)ncn2)c1 [Example 10, 3-[6-(3-methoxyphenoxy)pyrimidin-4-yl]-5,5-dimethyl-imidazolidine-2,4-dione]
21 | 16% | −1.0 mV | Cc1ccc(Oc2cc(N3C(=O)NC(C)(C)C3=O)ncn2)cc1OCC1CC1 [Example 37, 3-[6-[3-(cyclopropylmethoxy)-4-methyl-phenoxy]pyrimidin-4-yl]-5,5-dimethyl-imidazolidine-2,4-dione]
22 | 19% | −1.7 mV | CC1(C)NC(=O)N(c2cc(Oc3ccc4c(c3)OC(F)(F)O4)ncn2)C1=O [Example 45, 3-[6-[(2,2-difluoro-1,3-benzodioxol-5-yl)oxy]pyrimidin-4-yl]-5,5-dimethyl-imidazolidine-2,4-dione]
